Measurements as given in the supplement of paper PMC12317010.
Where a name gives a salt, the structure may show the parent alone.

Assay: collision cross section in nitrogen (drift tube, single-field); higher = larger gas-phase ion size
[1] = ion type: [M+H], ion source: ESI, ion mode: Positive
[2] = ion type: [M+H], ion source: APCI, ion mode: Positive
[3] = ion type: [M+Na], ion source: ESI, ion mode: Positive
[4] = ion type: [M+], ion source: APCI, ion mode: Positive
[5] = ion type: [M-H], ion source: ESI, ion mode: Negative
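Further: chemical standards at 10 µM analysed by drift tube IMS-QTOF MS in about 3.95 torr nitrogen, mean of duplicate injections differing ≤1%, mass error below 10 ppm.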

collision cross section in nitrogen [1] [Å²] | collision cross section in nitrogen [2] [Å²] | collision cross section in nitrogen [5] [Å²] | SMILES | further results
199.2 | 199.2 | 202.9 | O=C1CC2(CCCC2)CC(=O)N1CCCCN1CCN(c2ncccn2)CC1 [Buspirone] | collision cross section in nitrogen [3]: 201.6 Å²; collision cross section in nitrogen [4]: 196.8 Å²
 |  |  | CCCCOCN(C(=O)CCl)c1c(CC)cccc1CC [Butachlor] | collision cross section in nitrogen [3]: 184.4 Å²
 |  |  | CNC(=O)ON=C(C)C(C)S(C)(=O)=O (stereo unspecified) [Butoxycarboxim] | collision cross section in nitrogen [3]: 149.8 Å²
153.7 | 152.2 | 154.6 | C#CC(C)N(C)C(=O)Nc1ccc(Cl)cc1 (stereo unspecified) [Buturon] | collision cross section in nitrogen [3]: 166.1 Å²
 |  | 146.8 | CCCCOC(=O)C(C)CC (stereo unspecified) [Butyl 2-methylbutyrate] | 
 |  | 177.6 | CCCCCCCCCCCCCC(=O)OCCCC [Butyl myristate] | 
 |  | 149.4 | CCCCOC(=O)c1ccc(O)cc1 [Butylparaben] | 
 |  |  | CCCCCCOC(=O)CC(CC(=O)OCCCCCC)(OC(=O)CCC)C(=O)OCCCCCC [Butyryl-n-trihexylcitrate] | collision cross section in nitrogen [3]: 245.5 Å²
 |  |  | CCCCCCCCCCCC[N+](C)(C)CC(=O)O [C12-14-Alkyldimethyl betaines] | collision cross section in nitrogen (ion source: ESI, ion mode: Positive, ion type: [M]+ (permanent cation)): 183.8 Å²
243 |  |  | CCN(CC)c1ccc(C(=C2C=CC(=[N+](CC)CC)C=C2)c2ccc(S(=O)(=O)O)cc2S(=O)(=O)[O-])cc1 [C.I. Acid Blue 1, sodium salt] | collision cross section in nitrogen [3]: 255.4 Å²
 |  | 204.4 | O=[N+]([O-])c1ccc(Nc2ccc(Nc3ccccc3)c(S(=O)(=O)O)c2)c([N+](=O)[O-])c1 [C.I. Acid Orange 3] | 
 |  | 182.7 | O=S(=O)(O)c1ccc(N=Nc2c(O)ccc3ccccc23)cc1 [C.I. Acid Orange 7] | 
 |  | 187.1 | Cc1cc(S(=O)(=O)O)ccc1N=Nc1c(O)ccc2ccccc12 [C.I. Acid Orange 8, monosodium salt] | 
 |  | 192.5 | O=S(=O)(O)c1cc(S(=O)(=O)O)c2c(N=Nc3ccccc3)c(O)ccc2c1 [C.I. Acid Orange 10] | 
 |  | 221 | Cc1ccc(N/N=c2\c(=O)cc/c(=N/Nc3ccc(S(=O)(=O)O)cc3)c2=O)c(C)c1 [C.I. Acid Orange 24, monosodium salt] | 
219.7 |  | 231.2 | COc1ccc(N=Nc2cc(C)c(N=Nc3ccc(S(=O)(=O)O)cc3)cc2OC)cc1 [C.I. Acid Orange 156] | 
 |  | 210.2 | CC(=O)Nc1cc(S(=O)(=O)O)cc2cc(S(=O)(=O)O)c(N=Nc3ccccc3)c(O)c12 [C.I. Acid Red 1] | 

collision cross section in nitrogen [1] [Å²] | collision cross section in nitrogen [2] [Å²] | collision cross section in nitrogen [5] [Å²] | SMILES | further results
 |  | 193.7 | O=S(=O)(O)c1ccc(N=Nc2c(O)ccc3ccccc23)c2ccccc12 [C.I. Acid Red 88, monosodium salt] | 
319.9 |  | 317.8 | Cc1ccc(S(=O)(=O)Oc2ccc(N=Nc3ccc(-c4ccc(N=Nc5c(O)ccc6cc(S(=O)(=O)O)cc(S(=O)(=O)O)c56)c(C)c4)cc3C)cc2)cc1 [C.I. Acid Red 114] | 
 |  | 218 | COc1ccccc1N=Nc1c(S(=O)(=O)O)cc2cc(S(=O)(=O)O)cc(NC(C)=O)c2c1O [C.I. Acid Violet 12, disodium salt] | 
 |  | 199.2 | CC1=NN(c2ccc(S(=O)(=O)O)cc2)C(=O)C1N=Nc1ccccc1 (stereo unspecified) [C.I. Acid Yellow 11, sodium salt] | 
 |  | 227.6 | CC1=NN(c2cc(Cl)c(S(=O)(=O)O)cc2Cl)C(=O)C1N=Nc1ccc(S(=O)(=O)O)cc1 (stereo unspecified) [C.I. Acid Yellow 17, disodium salt] | 
196.9 |  | 202.7 | CC1=NN(c2cc(S(=O)(=O)O)ccc2Cl)C(=O)C1/N=N/c1ccccc1 (stereo unspecified) [C.I. Acid Yellow 34, monosodium salt] | 
151.2 | 150.7 | 149.6 | Nc1ccc(N=Nc2ccccc2)c(N)c1 [C.I. Basic Orange 2] | 
174.1 | 173.3 | 177.9 | N=C1C=CC(=C(c2ccc(N)cc2)c2ccc(N)cc2)C=C1 [C.I. Basic Red 9 monohydrochloride] | collision cross section in nitrogen [4]: 173.7 Å²
276.7 |  | 283.1 | O=C(Nc1ccc2c(O)c(N=Nc3ccc(N=Nc4ccc(S(=O)(=O)O)cc4)cc3)c(S(=O)(=O)O)cc2c1)c1ccccc1 [C.I. Direct Red 81 disodium salt] | 
278.7 |  | 279.3 | CCOc1ccc(N=Nc2ccc(C=Cc3ccc(N=Nc4ccc(OCC)cc4)cc3S(=O)(=O)O)c(S(=O)(=O)O)c2)cc1 [C.I. Direct Yellow 12] | collision cross section in nitrogen [3]: 286.9 Å²
167.5 | 167.2 |  | CNc1ccc(NCCO)c2c1C(=O)c1ccccc1C2=O [C.I. Disperse Blue 3] | 
 |  | 201.7 | O=C1c2c(O)ccc(Nc3ccc(CCO)cc3)c2C(=O)c2c([N+](=O)[O-])ccc(O)c21 [C.I. Disperse Blue 27] | collision cross section in nitrogen [3]: 189.9 Å²
188.8 | 188.5 |  | CCN(CCC#N)c1ccc(N=Nc2ccc([N+](=O)[O-])cc2)cc1 [C.I. Disperse Orange 25] | collision cross section in nitrogen [3]: 189.8 Å²
197.9 | 197.8 |  | CCN(CCC#N)c1ccc(N=Nc2c(Cl)cc([N+](=O)[O-])cc2Cl)cc1 [C.I. Disperse Orange 37] | 
178 | 177.7 | 175.8 | Nc1c(Oc2ccccc2)cc(O)c2c1C(=O)c1ccccc1C2=O [C.I. Disperse Red 60] | collision cross section in nitrogen [4]: 172.6 Å²
168.2 | 167.8 | 168.7 | CC(=O)Nc1ccc(N=Nc2cc(C)ccc2O)cc1 [C.I. Disperse Yellow 3] | 
 | 167.5 | 171.5 | O=C1c2ccccc2C(=O)C1c1nc2ccccc2c(Br)c1O [C.I. Disperse Yellow 64] | 

SMILES | collision cross section in nitrogen [1] [Å²] | collision cross section in nitrogen [2] [Å²] | collision cross section in nitrogen [5] [Å²] | further results
CC(NC(C)(C)C)C(=O)c1cccc(Cl)c1 (stereo unspecified) [Bupropion hydrochloride] | 158.6 |  |  | 
CC(C)N(Cc1ccccc1)C(=O)C(C)(C)C [Butam] | 154.5 | 154.6 |  | collision cross section in nitrogen [3]: 163.4 Å²
Nc1ccc(N=Nc2ccc(-c3ccc(N=Nc4c(S(=O)(=O)O)cc5cc(S(=O)(=O)O)c(N=Nc6ccccc6)c(O)c5c4N)cc3)cc2)c(N)c1 [C.I. Direct Black 38] | 311 |  | 304.4 | 
COc1cc(-c2ccc(N)c(OC)c2)ccc1N [C.I. Disperse Black 6 dihydrochloride] | 169.9 | 169.7 |  | collision cross section in nitrogen [4]: 156.1 Å²
COc1cc(-c2ccc(N)c(OC)c2)ccc1N [C.I. Disperse Black 6] | 170 | 170.4 |  | collision cross section in nitrogen [4]: 156.6 Å²
